Measured values published in publication PMC10831786 (Virus Research, 2024).
Values joined by “and” are separate entries in the source; they are usually repeats but may differ in a detail not shown here. Equal values may be shown once. Where a name gives a salt, the structure may show the parent alone. Read-outs that look alike come from different tables or passages of the source.

Assays:
[1] = test system: protein synthesis in rabbit reticulocyte lysate; experiment: Inhibition of protein synthesis in rabbit reticulocyte lysates (luciferase mRNA translation); type: biochemical
Experimental: The TnT® Quick Coupled Transcription/Translation System from Promega (WI, USA; L1170) was used to evaluate inhibitory effects of ipecac alkaloids and cycloheximide on protein synthesis. Assay conditions were employed as recommended by the manufacturer. Briefly, reactions (20 μl) contained 80 % TNT Quick master mix, 20 µM methionine, 40 ng/µL luciferase RNA (Promega; L4561), and test chemicals. Samples were incubated at 30 °C for 90 min and diluted 10-fold with PBS. An aliquot (2 μl) was mixed with 20 μl of luciferase assay reagent (Promega; E1500) and luminescence was measured with a Turner Designs luminometer (model TD-20/20).

BEC-hACE2 cells = experiment: Sulforhodamine B (SRB) assay in non-infected BEC-hACE2 cells; type: cell-based, human; conditions: for SRB, TGI / GI50: BEC-hACE2, 24 h; for GI50: read-out: SRB, GI50
Experimental: (§1) Detailed methods are provided in Supplementary Information.
This method has been used by the National Cancer Institute to evaluate drug candidates for their activities as growth inhibitors and toxins in human cancer cell lines. NCI’s protocols for SRB assay were strictly followed^81, 82. On the day of exposure (Day 0), several wells of untreated cells were fixed by addition of trichloroacetic acid (TCA, 10% V/V) and incubated for one hour at 4°C. The supernatant was discarded, wells washed five times with tap water and then air-dried. Samples were stored at room temperature until cells exposed to ipecac alkaloids or DMSO for 24 h were fixed in a similar manner. For color development, 500 µl of 0.4% SRB reagent prepared in 1% acetic acid was added to fixed cells and samples were incubated at room temperature for 15 min with gentle rocking. Unbound dye was removed by five washes with 1% acetic acid and plates were air-dried. Trizma base (10 mM) was used to dissolve the stain and absorbance was measured at 515 nm using a spectrophotometer. By comparing absorption values obtained at day 0 to the signal at day 1, with and without drugs, this protocol permits distinguishing growth inhibition from toxicity of the test compounds.

SARS-CoV-2 = experiment: Antiviral activity against SARS-CoV-2 in BEC-hACE2 cells (RT-qPCR)
HCoV-OC43 = experiment: Antiviral activity against HCoV-OC43 in Vero E6 cells (RT-qPCR of N-gene); type: cell-based
Experimental: Vero E6 cells (∼5 × 10^4 cells/cm^2 in 24-well plates) were infected with […] at MOI of 20 genomes per cell in 2 % FBS-EMEM at 33 °C, 5 % CO2 with gently mixing for 2 h. Infection medium was removed, cells were washed with fresh medium followed by the addition of compounds at indicated concentrations in 2 % FBS-EMEM. After 72 h, 100 µL of medium was collected and stored at −80 °C for viral RNA isolation and RT-qPCR analysis as detailed below. Drugs were added to the medium prior to and after viral absorption for comparison.
HCoV-OC43 RNA was isolated from 100 µL of medium using Quick-RNA Viral Kit-DX (Zymo Research, CA, USA; R1035). The relative amount of viral genomic RNA was determined with Luna Universal One-Step RT-qPCR Kit (New England Biolabs, MA, USA; E3005). […]
RT-qPCR cycles were set for 20 min at 55 °C, 1 min at 95 °C followed by 45 cycles of 95 °C for 10 s, 48 °C for 30 s and 60 °C for 1 min. The threshold cycle (Ct) for each sample was determined using the Opticon Monitor 3 Program (BioRad). Drug effects on viral propagation were evaluated assuming that a difference of one cycle corresponds to a two-fold difference in the number of copies of viral RNA. Ct values obtained for drug-free samples were considered as 100 % viral propagation.

[2] = target: T1, l-type calcium current ICaL (Homo sapiens, UniProt Q13936); experiment: Patch clamp recording of ICaL in human iPSC-derived cardiomyocytes; type: cell-based
T1 construct: host or cells: human iPSC-derived ventricular cardiomyocytes
Experimental: iPSC cells (Axol Bioscience Ltd, FL, USA) were plated at a density of 25,000 cells/cm^2 on coverslips coated with 1x Axol Fibronectin Coating Solution in Axol Plating Medium (Axol Cardiomyocyte Maintenance Medium, 10 % fetal bovine serum and 10 μM Y-27,632 2HCl) according to manufacturer's instructions. The next day the medium was changed to Axol Cardiomyocyte Maintenance Medium. Cells were maintained at 5 % CO2, 37 °C in humidified conditions. Medium was replaced every other day.
An Axopatch −1D (Axon Instruments: Molecular Devices LLC, CA, USA) amplifier and […] were used for recording and data analysis. Patch electrode resistance was set at 4–6 MΩ and room temperature was 22 ± 1 °C. During the recording, cells were held at −50 mV, then, the voltage was gradually raised to +60 mV in 10 mV increments with 300 ms pulse. The bath solution included the following components: 137 mM TEA-Cl, 1 mM MgCl2, 2 mM CaCl2, 10 mM HEPES, 10 mM glucose (pH 7.4, adjusted with TEA-OH). For the pipette the solution contained: 111 mM CsCl, 20 mM TEA-Cl, 10 mM glucose, 10 mM HEPES, 14 mM EGTA, 5 mM MgATP (pH 7.2, adjusted with CsOH).
D represents the concentrations of a given drug.

[3] = MTS assay, growth inhibition and toxicity in non-infected BEC-hACE2 cells; type: cell-based, human; conditions: human, sub-confluent non-infected BEC-hACE2 cells; sub-confluent BEC-hACE2, 24 h; read-out: MTS, CC50 (50 % effect)
Experimental: as §1
(§2) Vero E6 and BEC-hACE2 cells were grown to 70-80% density in their maintenance media and exposed to various concentrations of ipecac alkaloids (0.0125 – 200 µM) under standard culture conditions for 48-72 h and 24 h, respectively. Controls with varying amounts of DMSO and no DMSO were included also. Vero E6 cells were incubated with drugs in 2% FBS-EMEM, while BEC-HACE2 cells were grown and treated in complete PCS-300-03 medium with supplements. Similar treatments were also conducted using fully confluent non-growing BEC-hACE2 cells. At the end of the exposure period, MTS reagent (Promega G3580) was added at 1/5th of the medium volume and color was allowed to develop by incubation of the plates for an hour in a cell culture incubator. To stop reactions, SDS was added to a final concentration of 2% and optical density of samples was measured at 450 or 490 nm, depending on the model of spectrophotometer (PharmaciaBiotech, NJ, USA; UV spectrophotometer, model Ultrospec2000) or plate reader (Molecular Devices, CA, USA; model Filter Max F5 Multi-mode microplate reader) available at the time of experiment.

[4] = MTS assay, growth inhibition and toxicity in non-infected Vero E6 cells; type: cell-based, African green monkey; conditions: African green monkey, non-infected Vero E6 cells, MTS, 72 h; read-out: Fifty percent effect (CC50) in non-infected Vero E6
Experimental: as §1, §2

[5] = Severe acute respiratory syndrome coronavirus 2, read-out: Anti-SARS-CoV2, IC50, subconfluent BEC-hACE2, drug after viral absorption, 24 hpi
[6] = Severe acute respiratory syndrome coronavirus 2, read-out: Anti-SARS-CoV-2 IC50, BEC-hACE2, 24 hpi
[7] = Betacoronavirus 1, OC43, Vero C1008, 72 h, Vero E6, 72 h, read-out: Antiviral IC50
[8] = Betacoronavirus 1, OC43, Vero C1008, Vero E6, drug added after viral absorption, 72 hpi, read-out: Antiviral IC50

T1 sequence (Q13936 whole entry): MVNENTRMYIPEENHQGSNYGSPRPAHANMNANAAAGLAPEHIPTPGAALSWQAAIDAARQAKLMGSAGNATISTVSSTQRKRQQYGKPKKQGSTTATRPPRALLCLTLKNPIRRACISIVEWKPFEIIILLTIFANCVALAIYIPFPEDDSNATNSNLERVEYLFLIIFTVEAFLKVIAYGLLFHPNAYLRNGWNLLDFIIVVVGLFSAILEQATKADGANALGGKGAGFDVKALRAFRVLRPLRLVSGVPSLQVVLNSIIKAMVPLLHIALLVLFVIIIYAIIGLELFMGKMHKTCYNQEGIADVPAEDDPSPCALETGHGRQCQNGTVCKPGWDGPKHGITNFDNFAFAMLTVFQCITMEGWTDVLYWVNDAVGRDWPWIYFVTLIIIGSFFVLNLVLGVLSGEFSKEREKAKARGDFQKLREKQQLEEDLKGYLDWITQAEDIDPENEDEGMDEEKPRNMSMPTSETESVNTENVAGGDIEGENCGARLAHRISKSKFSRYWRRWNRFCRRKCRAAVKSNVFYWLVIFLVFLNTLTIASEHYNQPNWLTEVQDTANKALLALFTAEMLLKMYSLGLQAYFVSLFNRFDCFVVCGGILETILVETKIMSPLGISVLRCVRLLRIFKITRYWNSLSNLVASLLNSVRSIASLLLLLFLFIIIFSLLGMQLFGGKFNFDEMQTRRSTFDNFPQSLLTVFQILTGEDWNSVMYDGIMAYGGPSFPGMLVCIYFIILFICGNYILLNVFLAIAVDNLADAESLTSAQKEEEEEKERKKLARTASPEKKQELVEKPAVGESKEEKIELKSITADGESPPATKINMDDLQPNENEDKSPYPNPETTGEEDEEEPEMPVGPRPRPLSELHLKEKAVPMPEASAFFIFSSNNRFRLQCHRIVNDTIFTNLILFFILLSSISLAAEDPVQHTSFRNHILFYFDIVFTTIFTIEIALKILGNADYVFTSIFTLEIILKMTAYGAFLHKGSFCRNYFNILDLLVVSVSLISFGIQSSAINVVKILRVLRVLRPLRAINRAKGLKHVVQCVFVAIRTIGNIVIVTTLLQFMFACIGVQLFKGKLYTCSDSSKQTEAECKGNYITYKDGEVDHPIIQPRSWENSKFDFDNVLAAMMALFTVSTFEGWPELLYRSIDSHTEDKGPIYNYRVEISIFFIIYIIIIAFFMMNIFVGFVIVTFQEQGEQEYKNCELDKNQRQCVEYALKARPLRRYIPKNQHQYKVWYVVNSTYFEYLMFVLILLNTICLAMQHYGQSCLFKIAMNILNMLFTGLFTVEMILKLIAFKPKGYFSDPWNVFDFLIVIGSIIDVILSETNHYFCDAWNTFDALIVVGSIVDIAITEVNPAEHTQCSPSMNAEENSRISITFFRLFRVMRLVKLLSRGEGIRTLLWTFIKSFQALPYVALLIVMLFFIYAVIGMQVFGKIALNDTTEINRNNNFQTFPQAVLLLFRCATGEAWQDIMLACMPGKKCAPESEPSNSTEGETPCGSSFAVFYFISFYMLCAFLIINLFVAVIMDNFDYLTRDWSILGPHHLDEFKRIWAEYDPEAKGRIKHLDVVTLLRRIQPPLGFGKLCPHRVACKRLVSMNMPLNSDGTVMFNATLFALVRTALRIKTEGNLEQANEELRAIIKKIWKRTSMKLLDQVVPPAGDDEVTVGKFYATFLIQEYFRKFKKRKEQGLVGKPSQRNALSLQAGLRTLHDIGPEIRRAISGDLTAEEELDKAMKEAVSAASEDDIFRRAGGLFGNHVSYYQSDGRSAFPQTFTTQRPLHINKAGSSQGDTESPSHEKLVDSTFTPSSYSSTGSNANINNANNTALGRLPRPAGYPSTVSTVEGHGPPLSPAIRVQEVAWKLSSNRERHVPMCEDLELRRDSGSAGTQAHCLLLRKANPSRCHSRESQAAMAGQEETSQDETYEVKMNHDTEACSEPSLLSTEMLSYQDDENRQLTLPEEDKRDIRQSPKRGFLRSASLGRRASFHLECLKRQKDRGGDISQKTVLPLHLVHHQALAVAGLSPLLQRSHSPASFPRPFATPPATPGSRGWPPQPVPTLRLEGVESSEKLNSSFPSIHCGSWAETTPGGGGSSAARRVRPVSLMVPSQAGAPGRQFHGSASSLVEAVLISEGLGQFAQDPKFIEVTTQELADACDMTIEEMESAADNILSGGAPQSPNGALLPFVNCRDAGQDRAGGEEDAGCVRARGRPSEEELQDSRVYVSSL
T1 sequence (P54289 25-956, further chain): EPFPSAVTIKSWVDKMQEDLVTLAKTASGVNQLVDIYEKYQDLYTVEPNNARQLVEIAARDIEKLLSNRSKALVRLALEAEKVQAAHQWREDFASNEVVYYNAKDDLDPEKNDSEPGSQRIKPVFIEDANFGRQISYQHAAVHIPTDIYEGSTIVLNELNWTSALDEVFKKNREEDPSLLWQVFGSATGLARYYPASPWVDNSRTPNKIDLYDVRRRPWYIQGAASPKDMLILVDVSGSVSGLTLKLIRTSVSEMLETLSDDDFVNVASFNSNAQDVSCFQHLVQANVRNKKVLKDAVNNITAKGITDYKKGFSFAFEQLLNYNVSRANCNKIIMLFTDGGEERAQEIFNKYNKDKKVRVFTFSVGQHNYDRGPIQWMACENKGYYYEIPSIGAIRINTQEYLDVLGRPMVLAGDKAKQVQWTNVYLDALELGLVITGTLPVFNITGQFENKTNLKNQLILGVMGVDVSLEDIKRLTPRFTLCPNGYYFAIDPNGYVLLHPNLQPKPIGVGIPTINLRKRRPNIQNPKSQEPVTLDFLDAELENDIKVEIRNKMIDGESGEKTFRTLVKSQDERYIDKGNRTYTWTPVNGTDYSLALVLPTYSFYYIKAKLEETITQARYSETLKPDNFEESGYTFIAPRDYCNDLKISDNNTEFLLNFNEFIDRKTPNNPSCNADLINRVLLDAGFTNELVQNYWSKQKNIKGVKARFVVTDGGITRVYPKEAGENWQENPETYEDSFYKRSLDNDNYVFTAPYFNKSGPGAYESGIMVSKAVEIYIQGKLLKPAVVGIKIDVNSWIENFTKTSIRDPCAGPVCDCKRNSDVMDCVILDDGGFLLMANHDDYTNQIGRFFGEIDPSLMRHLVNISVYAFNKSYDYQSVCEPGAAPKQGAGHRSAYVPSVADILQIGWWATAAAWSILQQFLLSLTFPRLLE
T1 sequence (P54289 957-1103, further chain): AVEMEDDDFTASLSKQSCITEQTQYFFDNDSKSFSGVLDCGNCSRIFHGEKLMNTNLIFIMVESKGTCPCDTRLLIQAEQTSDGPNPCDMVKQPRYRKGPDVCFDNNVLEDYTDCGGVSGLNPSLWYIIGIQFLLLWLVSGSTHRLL
T1 sequence (Q08289 whole entry, further chain): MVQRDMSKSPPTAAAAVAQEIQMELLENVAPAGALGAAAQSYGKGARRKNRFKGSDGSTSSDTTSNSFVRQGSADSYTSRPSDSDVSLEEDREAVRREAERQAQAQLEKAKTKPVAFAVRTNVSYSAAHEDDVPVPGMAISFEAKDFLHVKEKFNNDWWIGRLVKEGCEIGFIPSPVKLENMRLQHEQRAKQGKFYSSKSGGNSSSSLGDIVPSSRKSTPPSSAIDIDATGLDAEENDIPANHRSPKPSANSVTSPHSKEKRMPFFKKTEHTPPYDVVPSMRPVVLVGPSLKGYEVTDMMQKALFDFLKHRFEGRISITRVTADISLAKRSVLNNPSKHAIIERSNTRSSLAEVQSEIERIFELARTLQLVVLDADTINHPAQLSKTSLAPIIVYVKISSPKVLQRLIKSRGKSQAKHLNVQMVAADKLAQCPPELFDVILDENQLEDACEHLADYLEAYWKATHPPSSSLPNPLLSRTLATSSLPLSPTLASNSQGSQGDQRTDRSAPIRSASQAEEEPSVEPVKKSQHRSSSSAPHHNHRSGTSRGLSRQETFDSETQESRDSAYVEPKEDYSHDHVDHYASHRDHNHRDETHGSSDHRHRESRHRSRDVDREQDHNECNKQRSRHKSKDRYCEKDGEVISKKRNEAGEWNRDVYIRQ

Structure (SMILES): CC[C@H]1CN2CCc3cc(OC)c(OC)cc3[C@@H]2C[C@@H]1C[C@@H]1NCCc2cc(OC)c(OC)cc21.Cl.Cl [Isoemetine, 2H-Benzoaquinolizine, 3-ethyl-1,3,4,6,7,11b-hexahydro-9,10-dimethoxy-2-(1S)-1,2,3,4-tetrahydro-6,7-dimethoxy-1-isoquinolinylmethyl-, dihydrochloride, (2S,3R,11bS)-]
- Inhibitory effects on translation in rabbit reticulocyte lysate ([1]; concentration range 0.1 - 100 μM): no inhibitory effects
- IC50, protein synthesis inhibition in rabbit reticulocyte lysate ([1]; luciferase mRNA, 30 °C, 90 min): Not active
- SRB, TGI (BEC-hACE2 cells): ~200000 nM
- GI50 (BEC-hACE2 cells): 19400 ± 3860 nM
- SRB, nature of the effect (BEC-hACE2 cells; BEC-hACE2, at ∼200 μM): toxic
- IC50 (SARS-CoV-2; read-out: Anti-SARS-CoV2, IC50, subconfluent BEC-hACE2, drug after viral absorption, 24 hpi): 16500 nM
- IC50 (SARS-CoV-2; read-out: Anti-SARS-CoV2, IC50, subconfluent BEC-hACE2, drug after viral absorption, 24 hpi, listed as ISOEMT): 16500 ± 6240 nM
- IC50 (HCoV-OC43; Vero E6, drug added after viral absorption, 72 hpi, read-out: Antiviral IC50): 1050 ± 213 nM

Structure (SMILES): CCC1=C(C[C@H]2NCCc3cc(OC)c(OC)cc32)C[C@H]2c3cc(OC)c(OC)cc3CCN2C1 [DHE4, 4H-Benzo[a]quinolizine, 3-ethyl-1,6,7,11b-tetrahydro-9,10-dimethoxy-2-[[(1R)-1,2,3,4-tetrahydro-6,7-dimethoxy-1-isoquinolinyl]methyl]-, (11bS)-]
- IC50 ([1]; luciferase mRNA, 30 °C, 90 min): 1300 nM and 1330 nM
- GI50 (BEC-hACE2 cells): 62 ± 17 nM
- GI50 (BEC-hACE2 cells; Homo sapiens, 24 h): 60 nM
- Kd [2]: 60000 nM
- Peak current density, ICaL ([2]; human IPSC-derived cardiomyocytes, DHE4 30 uM (control 13.5)): 8.9
- Peak current density, ICaL, washout ([2]; human IPSC-derived cardiomyocytes, after washout of DHE4 30 uM (control 13.5)): 9.8
- SI from MTS CC50 (50 % effect) (SARS-CoV-2; SARS-CoV-2, BEC-hACE2): exceed 1500
- IC50 (SARS-CoV-2; [5]): 88 ± 23 nM
- IC50 (SARS-CoV-2; [6]): 50 to 100 nM
- IC50 (HCoV-OC43; [7]): 40 to 60 nM
- IC50 (HCoV-OC43; [8]): 63 ± 4 nM
- IC50 (HCoV-OC43; Betacoronavirus 1, OC43, Vero C1008, read-out: Antiviral IC50, Vero E6, drug 1 h before viral absorption and 72 h after infection (1 hbi/72 hpi)): 66 ± 6 nM
- Selectivity index, (SI) CC50/IC50 (HCoV-OC43; HCoV-OC43, Vero E6, 72 hpi): 52

Structure (SMILES): CC[C@H]1CN2CCc3cc(OC)c(OC)cc3[C@@H]2C[C@@H]1C[C@H]1NCCc2cc(OC)c(OC)cc21 [Emetine, 2H-Benzoaquinolizine, 3-ethyl-1,3,4,6,7,11b-hexahydro-9,10-dimethoxy-2-(1R)-1,2,3,4-tetrahydro-6,7-dimethoxy-1-isoquinolinylmethyl-, dihydrochloride, (2S,3R,11bS)-, reference compound]
- IC50 ([1]; luciferase mRNA, 30 °C, 90 min): 1200 nM and 1210 nM
- SRB, TGI (BEC-hACE2 cells): 250 to 500 nM
- SRB, TGI (BEC-hACE2 cells; listed as EMT): ∼ 0.25–0.5 μM
- GI50 (BEC-hACE2 cells; Homo sapiens, 24 h): 110 nM
- GI50 (BEC-hACE2 cells; listed as EMT): 112 ± 22 nM
- Estimated reduction in ICaL ([2]; human cardiomyocytes, assuming 25 µM): approximately one-third
- IC50 (SARS-CoV-2; [5]): 52 ± 3 nM
- IC50 (SARS-CoV-2; [6]): ~52 nM
- inhibition at 0.5 µM (SARS-CoV-2; Severe acute respiratory syndrome coronavirus 2, read-out: Inhibition of viral propagation): ≥ 90%
- IC50 (SARS-CoV-2; read-out: Anti-SARS-CoV-2 IC50, BEC-hACE2, 24 hpi): 50 to 100 nM
- CC50 at 24 h [3]: 100000 nM
- IC50 (HCoV-OC43; [7]): 40 to 60 nM
- IC50 (HCoV-OC43; Betacoronavirus 1, OC43, Vero C1008, Vero E6, drug 1 h before viral absorption and 72 h after infection (1 hbi/72 hpi), read-out: Antiviral IC50): 44 ± 2 nM
- IC50 (HCoV-OC43; [8]): 40 ± 2 nM
- CC50 at 72 h [4]: 1520 nM
